Results on 26 compounds are retold here after patent US10774063B2, “Materials and method for inhibiting replication protein A and uses thereof” (INDIANA UNIVERSITY RESEARCH AND TECHNOLOGY CORPORATION, priority 2014, dated 2020).

Like-named read-outs stand apart in the source and are kept apart here.

Series [1] concerns the target full length, heterotrimeric human RPA (fl-RPA) (Homo sapiens (Human), UniProt P27694). Kind of series: EMSA for inhibition of RPA-DNA binding activity (full length RPA). The protocol:
Referring to protein purification, full length, heterotrimeric human RPA (fl-RPA) was expressed in E. coli and purified by a three column procedure as previously described (See Patrick S M and Turchi J, Replication Protein A (RPA) Binding to Duplex Cisplatin-damaged DNA Is Mediated through the Generation of Single-stranded DNA. J Biol Chem 1999; 274:14972-8). The DBD-A/B construct was expressed as a SUMO-His6-RPA^181-432 fusion protein. E. coli BL21 (DE3) cells in log growth were induced for 3 hours with 0.5 mM IPTG at 37° C. The cells were lysed in buffer containing 50 mM Tris pH 7.5, 300 mM NaCl, 10% sucrose, 10 mM imidazole, 25 μg/ml lysozyme, 1 μg/ml leupeptin, 1 μg/ml pepstatin and 0.5 mM PMSF. The lysate was loaded onto a Ni-NTA column washed and then incubated overnight with wash buffer containing 3 μg/ml ULP1 protease to cleave the SUMO tag. The cleaved His6-RPA^181-432 was eluted from the Ni-NTA column with elution buffer containing 350 mM imidazole. The His6-RPA was then further purified on a size exclusion column (SEC) to remove the cleaved SUMO tag fragment. The SEC pool was then concentrated and stored at −80° C.
Referring now to Electrophoretic Mobility Shift Assays (“EMSA”), EMSA reactions (20 μL) were performed with 50 nM fl-RPA and 2.5 nM 5′[^32P]-labeled 34-base DNA in buffer containing 20 mM HEPES (pH 7.0), 1 mM DTT, 0.001% NP-40, 100 mM NaCl, 5 mM MgCl2 and 50 μg/ml bovine serum albumin (BSA). Chemical compounds, either purchased from ChemDiv or synthesized in the laboratory, were suspended in DMSO and titrated as detailed in each figure. The DMSO concentration in the reaction mixture was kept constant at or below 5%. RPA was incubated with inhibitor or DMSO control in reaction buffer for 30 minutes before the addition of DNA. Reactions were incubated for 5 minutes at room temperature and products separated via 6% native polyacrylamide gel electrophoresis. The bound and unbound fractions were then quantified by phosphor-imager analysis using ImageQuant software (Molecular Dynamics, CA) and IC50 values calculated by non-linear regression using SigmPlot (Sysat). For EMSA reactions with RPA DBD-A/B, 150 nM DBD-A/B was used and electrophoresis was performed at 4° C. All other conditions were identical to those described for the full length RPA.
On the technique in general: In EMSA bound probe runs differently from free probe, usually more slowly.

The subject of series [2] is A2780 EOC cell line. The series is described as follows: Clonogenic survival assay in A2780 cells. It counts as cell-based. The conditions noted are these: 48 hours treatment, 1-200 μM, read-out: Cellular IC50. The protocol:
Referring now to cell culture, A2780 cells and A2780/R cells were purchased from Sigma. All other cell lines were from ATCC and routinely tested for mycoplasma contamination. Cells were maintained in RPMI media supplemented with 10% FBS (Atlanta Biological), penicillin and streptomycin. Cultures were incubated at 37° C. in 5% CO2 and sub-cultured 2-3 times per week.
(§1) Referring now to clonogenic survival assays, cells were plated in a 6 well (100,000 cells/well) or 24 well (25,000 cells/well) plate, incubated for at least 18 hours and then treated with Pt/etoposide and/or RPA inhibitors. After 48 hours of treatment, the cells were re-plated in 10 cm dishes (500-1000 cells/dish) and incubated for 8-10 days to allow colony formation. Plates were then washed with PBS, fixed with glutaraldehyde (Fisher Scientific) and stained with crystal violet (Acros Organics). The colonies were then counted using an Acolyte Synbiosis colony counter, viability determined versus vehicle controls which were plotted versus drug concentration.

Series [3] concerns A2780 cells. Kind of series: Assessment of synergy via combination index (Chou-Talalay), colony formation. Type of series: cell-based. The conditions noted are these: A2780, at 0.5 or higher fraction of cells affected. The protocol:
as §1
Referring now to Assessment of Synergy via Combination Index, in the combination index studies, the A2780 cells were treated with RPA inhibitor and Pt/etoposide alone as well as the combination of both—the inhibitor and the DNA damaging chemotherapeutic agent. The range of treatment was dependent on the IC50 of each inhibitor/drug. If the IC50 was X, then the cells were treated at a range of X/4 to 3X concentration in a colony formation assay. […]

Series [4] can be described thus: Preliminary pharmacokinetic analysis. Type of series: in vivo, mice.
The nature of series [5]: Safety and tolerability (body weight) in naive NOD/SCID mice. It counts as in vivo. As for the experimental part:
Referring now to in vivo analysis of TDRL-551, non-obese diabetic/severe combined immunodeficient mice (NOD/SCID) were obtained from The Jackson Laboratory. All animal studies were conducted under the guidelines of the NIH and were approved by the Institutional Animal Care and Use Committee of Indiana University School of Medicine. Animals were maintained under pathogen-free conditions and a 12-hour light-dark cycle. The safety and tolerability of TDRL-551 was assessed in naïve NOD/SCID mice. Mice were treated IP with increasing concentrations of TDRL-551 in a formulation consisting of 20% DMSO, 10% Tween 80, 70% PBS. Based on preliminary PK analysis and a half-life of ˜7 hours (data not shown) we administered 3 doses per week for two weeks and measured body weight every other day.

[6] abbreviates: EMSA, RPA incubated with compounds at 1-125 μM, read-out: In vitro IC50.
[7] abbreviates: compounds titrated at 1-125 μM, read-out: IC50 calculated from EMSA reactions.

Sequence of full length, heterotrimeric human RPA (fl-RPA) (P27694 whole entry, the tested form may be a part): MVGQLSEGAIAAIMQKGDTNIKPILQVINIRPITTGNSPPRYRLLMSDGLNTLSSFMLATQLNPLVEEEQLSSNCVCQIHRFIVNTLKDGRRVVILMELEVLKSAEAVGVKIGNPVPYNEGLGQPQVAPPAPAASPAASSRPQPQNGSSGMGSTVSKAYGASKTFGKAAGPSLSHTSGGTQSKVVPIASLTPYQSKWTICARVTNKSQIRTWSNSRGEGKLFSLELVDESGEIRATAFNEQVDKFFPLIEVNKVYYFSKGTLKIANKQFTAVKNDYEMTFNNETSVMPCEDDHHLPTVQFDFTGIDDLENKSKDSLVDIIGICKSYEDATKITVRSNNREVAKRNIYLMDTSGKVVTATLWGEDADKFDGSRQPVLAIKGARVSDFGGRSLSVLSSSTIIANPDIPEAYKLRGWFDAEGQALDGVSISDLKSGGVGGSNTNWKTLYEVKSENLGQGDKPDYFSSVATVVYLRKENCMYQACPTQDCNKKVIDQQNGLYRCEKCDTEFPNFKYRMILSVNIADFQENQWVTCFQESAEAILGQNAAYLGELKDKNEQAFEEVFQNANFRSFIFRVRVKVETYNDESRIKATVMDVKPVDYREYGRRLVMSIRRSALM
Sequence of full length, heterotrimeric human RPA (fl-RPA) (P15927 whole entry partner, the tested form may be a part): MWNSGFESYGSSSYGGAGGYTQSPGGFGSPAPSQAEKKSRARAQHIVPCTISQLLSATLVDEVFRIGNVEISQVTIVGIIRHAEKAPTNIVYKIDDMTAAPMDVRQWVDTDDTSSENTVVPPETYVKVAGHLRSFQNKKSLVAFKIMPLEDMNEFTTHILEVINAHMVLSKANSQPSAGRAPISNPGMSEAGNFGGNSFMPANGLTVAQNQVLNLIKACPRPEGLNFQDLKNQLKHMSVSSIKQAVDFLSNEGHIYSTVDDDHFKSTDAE
Sequence of full length, heterotrimeric human RPA (fl-RPA) (P35244 whole entry partner, the tested form may be a part): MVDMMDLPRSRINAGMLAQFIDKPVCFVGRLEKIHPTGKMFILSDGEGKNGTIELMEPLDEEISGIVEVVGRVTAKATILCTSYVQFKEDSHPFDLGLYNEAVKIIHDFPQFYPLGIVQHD

The term IC50 denotes the midpoint of a concentration-inhibition curve. For `CCOc1ccc2cc(C3CC(c4ccc(I)cc4)=NN3c3cccc(C(=O)O)c3)c(Cl)nc2c1` (centres unmarked) [NG-01-02], the IC50 in series [1] (setting [6]) was found to be 75.5 µM.

Take `CCOc1ccc2cc(C3CC(c4ccc(I)cc4)=NN3c3ccc(C(=O)O)cc3)c(Cl)nc2c1` (centres unmarked) [NG-01-04]: in series [1] (setting [6]), the IC50 is more than 100 µM.

`COc1ccc2cc(C3CC(c4ccc(OC)c(OC)c4)=NN3C(=O)CCC(=O)O)c(Cl)nc2c1` (centres unmarked) [h]: in series [1] (setting [7]), the IC50 was more than 100 µM.

As for `COc1ccc(C2=NN(C(=O)CCCC(=O)O)C(c3ccccc3OC)C2)cc1` (centres unmarked) [c], in series [1] (setting [7]), the IC50 is more than 100 µM.

Turning to `COc1ccc2cc(C3CC(c4ccc(Cl)cc4)=NN3C(=O)CCCC(=O)O)c(Cl)nc2c1` (centres unmarked) [j], the IC50 in series [1] (setting [7]) was 60 µM.

As to `CCOc1ccc2cc(C3CC(c4ccc(Br)cc4)=NN3C(=O)CCCCC(=O)O)c(Cl)nc2c1` (centres unmarked) [TDRL-543], the IC50 in series [2] came to 50 µM; in series [1] (setting [6]), 25 µM.

As for `COc1ccc2cc(C3CC(c4ccc(C)cc4)=NN3C(=O)CCCC(=O)O)c(Cl)nc2c1` (centres unmarked) [i], in series [1] (setting [7]), the IC50 is more than 100 µM.

Take `O=C(O)CCCC(=O)N1N=C(c2ccccc2)CC1c1cc2cc3c(cc2nc1Cl)OCCO3` (centres unmarked) [l]: in series [1] (setting [7]), the IC50 was more than 100 µM.

Regarding `CCOc1ccc2cc(C3CC(c4ccc(C)cc4)=NN3C(=O)CCC(=O)O)c(Cl)nc2c1` (centres unmarked) [e], in series [1] (setting [7]), the IC50 was 80 µM.

For `COc1ccc2cc(C3CC(c4ccc(OC)c(OC)c4)=NN3C(=O)CCCC(=O)O)c(Cl)nc2c1` (centres unmarked) [k], in series [1] (setting [7]), the IC50 was more than 100 µM.

For `CCOc1ccc2cc(C3CC(c4ccc(OC(F)(F)F)cc4)=NN3C(=O)CCCCC(=O)O)c(Cl)nc2c1` (centres unmarked) [TDRL-557], the IC50 in series [1] (setting [6]) amounted to 30 µM.

As to `CCOc1ccc2cc(C3CC(c4ccc(Br)nc4)=NN3C(=O)CCC(=O)O)c(Cl)nc2c1` (centres unmarked) [TDRL-617], in series [1] (setting [6]), the IC50 is more than 100 µM.

`CCOc1ccc2cc(C3CC(c4cccc(I)c4)=NN3C(=O)CCCCC(=O)O)c(Cl)nc2c1` (centres unmarked) [TDRL-652]: in series [1] (setting [6]), the IC50 came out at 15 µM.

Consider `COc1ccc2cc(C3CC(c4ccc(F)cc4)=NN3C(=O)CCCC(=O)O)c(Cl)nc2c1` (centres unmarked) [TDRL-540], for which the IC50 in series [1] (setting [6]) is more than 100 µM.

`CCOc1ccc2cc(C3CC(c4ccc(Br)cc4)=NN3C(=O)CCCC(=O)O)c(Cl)nc2c1` (centres unmarked) [d]: the IC50 in series [1] (setting [7]) was 25 µM.

On to `COc1ccc2cc(C3CC(c4ccc(Cl)cc4)=NN3C(=O)CCC(=O)O)c(Cl)nc2c1` (centres unmarked) [f], for which the IC50 in series [1] (setting [7]) is 75 µM.

As for `COc1ccc2cc(C3CC(c4ccc(F)cc4)=NN3C(=O)CCCCC(=O)O)c(Cl)nc2c1` (centres unmarked) [TDRL-539], in series [1] (setting [6]), the IC50 is more than 100 µM.

Turning to `COc1ccc2cc(C3CC(c4ccc(Br)cc4)=NN3C(=O)CCCCC(=O)O)c(Cl)nc2c1` (centres unmarked) [TDRL-534], the concentration for half-maximal inhibition (IC50) in series [1] (setting [6]) turned out to be 35 µM.

In the case of `CCOc1ccc2cc(C3CC(c4ccc(I)cc4)=NN3C(=O)CCCCC(=O)O)c(Cl)nc2c1` (centres unmarked) [NG-01-24], in series [1] (setting [6]), the IC50 is 7 µM.

Regarding `COc1ccc(C2CC(c3ccccc3)=NN2C(=O)CCCC(=O)O)cc1OC` (centres unmarked) [a], the IC50 in series [1] (setting [7]) was more than 100 µM.

Consider `CC(C)Oc1ccc2cc(C3CC(c4ccc(Br)cc4)=NN3C(=O)CCCCC(=O)O)c(Cl)nc2c1` (centres unmarked) [TDRL-556], for which the IC50 in series [1] (setting [6]) was 43 µM.

Consider `COc1ccc2cc(C3CC(c4ccc(Br)cc4)=NN3C(=O)CCCC(=O)O)c(Cl)nc2c1` (centres unmarked) [TDRL-533], for which the IC50 in series [2] and in series [1] (setting [6]) was more than 50 µM throughout.

In general, half-life refers to the time in which the quantity being followed falls by half. Higher therefore signals slow loss. `CCOc1ccc2cc(C3CC(c4ccc(I)cc4)=NN3C(=O)CCCC(=O)O)c(Cl)nc2c1` (centres unmarked): the “combination index (CI) with cisplatin” value in series [3] was less than 1. Besides, the half-life in series [4] (NOD/SCID, mouse, plasma, preliminary PK analysis) was approximately 7 h. This compound yielded a plasma concentration achieved in series [4] (initial pharmacokinetic analysis) of more than 20 µM. In addition, in series [2] (Homo sapiens), the concentration for half-maximal inhibition (IC50) was 25 µM. Further, the “adverse effects / loss of weight” value in series [5] (co-treatment with carboplatin, up to 200 mg/kg) is “no adverse effects or loss of weight”. For the same compound, the body weight change entry in series [5] (intraperitoneal administration up to 200 mg/kg, 3 doses per week for two weeks) is “no weight loss observed”. For the same compound, in series [5] (intraperitoneal, 300 mg/kg), the body weight change result is “slight decrease in body weight” and the loss of weight is not above 10%.

As for `COc1ccc(C2=NN(C(=O)CCC(=O)O)C(c3cc4ccc(OC)cc4nc3Cl)C2)cc1` (centres unmarked) [g], the IC50 in series [1] (setting [7]) is more than 100 µM.

`COc1ccc(C2CC(c3ccc(C)cc3)=NN2C(=O)CCCC(=O)O)cc1OC` (centres unmarked) [b]: in series [1] (setting [7]), the IC50 is more than 100 µM.

In the case of `CCOc1ccc2cc(C3CC(c4ccc(I)cc4)=NN3C(=O)CCCCCC(=O)O)c(Cl)nc2c1` (centres unmarked) [NG-01-25], in series [1] (setting [6]), the 50% inhibitory concentration (IC50) came out at 10 µM.
